# Assay results as given in patent US5624923A, “Tricyclic diazepine vasopressin antagonists and oxytocin antagonists” (priority 1995, dated 1997).
# Like-named read-outs stand apart in the source and are kept apart here.
# Experiments:
# [1] = molecular target: T1, Rat Kidney Medullary V2 Receptors (Rattus norvegicus, UniProt Q00788); assay: Binding Assay to Rat Kidney Medullary V2 Receptors
# T1 construct: Medullary tissues from rat kidneys are dissected out; from tissue; host or cells: rat kidney medulla membranes
# T1 sequence (Q00788 whole entry): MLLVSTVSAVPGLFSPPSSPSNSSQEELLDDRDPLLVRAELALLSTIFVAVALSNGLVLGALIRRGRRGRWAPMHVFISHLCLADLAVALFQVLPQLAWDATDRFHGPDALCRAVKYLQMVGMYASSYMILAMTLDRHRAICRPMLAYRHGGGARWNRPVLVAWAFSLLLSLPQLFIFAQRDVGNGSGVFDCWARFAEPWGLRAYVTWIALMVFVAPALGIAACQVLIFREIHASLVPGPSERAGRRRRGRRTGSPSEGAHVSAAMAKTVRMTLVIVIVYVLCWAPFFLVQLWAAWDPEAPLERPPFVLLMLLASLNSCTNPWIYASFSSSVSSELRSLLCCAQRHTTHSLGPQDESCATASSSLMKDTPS
# Procedure: Binding Assay to Rat Kidney Medullary V2 Receptors
# Medullary tissues from rat kidneys are dissected out, cut into small pieces and soaked in a […] sodium chloride solution containing 1.0 mM EDTA with many changes of the liquid phase, until the solution is clear of blood. The tissue is homogenized in a 0.25M sucrose solution containing 1.0 mM EDTA and 0.1 mM PMSF using a Potter-Elvehjem homogenizer with a teflon pestle. The homogenate is filtered through several layers (4 layers) of cheese cloth. The filtrate is rehomogenized using a dounce homogenizer, with a tight fitting pestle. The final homogenate is centrifuged at 1500× g for 15 min. The nuclear pellet is discarded and the supernatant fluid recentrifuged at 40,000× g for 30 min. The resulting pellet formed contains a dark inner part with the exterior., slightly pink. The pink outer part is suspended in a small amount of 50.0 mM Tris. HCl buffer, pH 7.4. The protein content is determined by the Lowry's method (Lowry et al., J. Biol. Chem., 1953). The membrane suspension is stored at -70° C. in 50.0 mM Tris HCl, containing 0.2% inactivated BSA and 0.1 mM PMSF in aliquots of 1.0 ml containing 10.0 mg protein per ml of suspension until use in subsequent binding experiments.
# (§1) The plates are left undisturbed on the bench top for 120 min to reach equilibrium. Non-specific binding is assessed in the presence of 1.0 μM of unlabeled ligand, added in 20 μl volume. For test compounds, these are solubilized in 50% dimethylsulfoxide (DMSO) and added in 20.0 μl volume to a final incubation volume of 200 μl. Upon completion of binding, the content of each well is filtered off, using a Brandel® cell Harvester (Gaithersburg, Md.). The radioactivity trapped on the filter disk by the ligand-receptor complex is assessed by liquid scintillation counting in a Packard LS Counter, with an efficiency of 65% for tritium. The data are analyzed for IC50 values by the LUNDON-2 program for competition (LUNDON SOFTWARE, Ohio).
# Vasopressin V1 = Vasopressin V1 Antagonist Activity in Conscious Rats (vasopressin vasopressor response); assay type: in vivo, rat; parameters: Average Change: unit not given here; conditions: 10 mg/kg i.v., SHR
# Procedure: Vasopressin V1 Antagonist Activity in Conscious Rats
# Conscious rats are restrained in a supine position with elastic tape. The area at the base of the tail is locally anesthetized by subcutaneous infiltration with 2% procaine (0.2 ml). Using aseptic technique the ventral caudal tail artery is isolated and a cannula made of PE 10 and 20 (heat-fused) tubing is passed into the lower abdominal aorta. The cannula is secured, heparinized (1000 i.u./cc), sealed and the wound closed with one or two stitches of Dexon 4-0. The caudal vein is also cannulated in the same manner for intravenous drug administration. The duration of the surgery is approximately 5 minutes. Additional local anesthesia (2% procaine or lidocaine) is provided as needed.
# The animals are placed in plastic restraining cages in an upright position. The cannula is attached to a Statham P23Db pressure transducer and pulsatile blood pressure is recorded. […] The vasopressin injections are repeated 30,60,90,120,180,240 and 300 min. later. Percentage of antagonism by the compound is calculated using the pre-drug vasopressin vasopressor response as 100%.
# Rat Hepatic V1 Receptors = molecular target: T2, Rat Hepatic V1 Receptors (Rattus norvegicus, UniProt P30560); assay: Binding Assay to Rat Hepatic V1 Receptors
# T2 construct: Rat liver plasma membranes expressing the vasopressin V1 receptor subtypes; from tissue; host or cells: rat liver plasma membranes
# T2 sequence (P30560 whole entry): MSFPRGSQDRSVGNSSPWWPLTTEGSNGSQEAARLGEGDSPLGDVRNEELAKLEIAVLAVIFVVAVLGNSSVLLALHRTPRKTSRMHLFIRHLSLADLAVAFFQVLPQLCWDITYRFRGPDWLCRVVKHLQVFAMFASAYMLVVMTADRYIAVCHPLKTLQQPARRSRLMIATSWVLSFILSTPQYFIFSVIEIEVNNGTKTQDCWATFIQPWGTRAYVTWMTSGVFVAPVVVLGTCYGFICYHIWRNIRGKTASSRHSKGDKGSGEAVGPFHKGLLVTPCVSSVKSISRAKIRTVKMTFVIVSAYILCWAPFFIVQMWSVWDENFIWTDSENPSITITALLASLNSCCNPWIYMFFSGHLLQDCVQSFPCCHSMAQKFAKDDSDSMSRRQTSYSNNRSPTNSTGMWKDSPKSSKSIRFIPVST
# Procedure: Binding Assay to Rat Hepatic V1 Receptors
# Rat liver plasma membranes expressing the vasopressin V1 receptor subtypes are isolated by sucrose density gradient according to the method described by Lesko et al., (1973). These membranes are quickly suspended in 50.0 mM Tris.HCl buffer, pH 7.4, containing 0.2% bovine serum albumin (BSA) and 0.1 mM phenylmethylsulfonylfluoride (PMSF) and kept frozen at -70° C. until used in subsequent binding experiments. For binding experiments, the following is added to the wells of a ninety-six well format microtiter plate: 100 μl of 100.0 mM Tris.HCl buffer containing 10.0 mM MgCl2, 0.2% heat inactivated BSA and a mixture of protease inhibitors: leupeptin, 1.0 mg %; aprotinin, 1.0 mg %; 1,10-phenanthroiine,2.0 mg %; trypsin inhibitor, 10.0 mg % and 0.1 mM PMSF, 20.0 μl of [phenylalanyl-3,4,5, -^3 H] vasopressin (S.A. 45.1 Ci/mmole) at 0.8 nM, and the reaction initiated by the addition of 80 μl of tissue membranes containing 20 μg of tissue protein. The plates are kept undisturbed on the bench top at room temperature for 120 min. to reach equilibrium. Non-specific samples are assayed in the presence of 0.1 μM of the unlabeled antagonist phenylalanylvasopressin, added in 20.0 μl volume.
# as §1, with “For” for “The plates are left undisturbed on the bench top for 120 min to reach equilibrium. Non-specific binding is assessed in the presence of 1.0 μM of unlabeled ligand, added in 20 μl volume. For”, “μl .” for “μl.”
# [2] = rat kidney medulla membranes, read-out: V2 IC50
# [3] = rat liver membranes, read-out: V1 IC50
smiles,measurement,setting,value
"COc1cc(Cl)ccc1C(=O)Nc1ccc(C(=O)N2Cc3cccn3Cc3ccccc32)cc1 [Example 89, N-[4-(5H-Pyrrolo[2,1-c][1,4]benzodiazepin-10(11H)ylcarbonyl)phenyl]-4-chloro-2-methoxybenzamide]",IC50,[1]; [2],8 nM
same,% Inhibition,"Vasopressin V1; VAS 0.01 i.u./kg, 30 min",88%
same,Average Change,"Vasopressin V1; VAS 0.01 i.u./kg, 30 min",5
same,% Inhibition,"Vasopressin V1; VAS 0.01 i.u./kg, 60 min",81%
same,Average Change,"Vasopressin V1; VAS 0.01 i.u./kg, 60 min",7.5
same,% Inhibition,"Vasopressin V1; VAS 0.01 i.u./kg, 90 min",81%
same,Average Change,"Vasopressin V1; VAS 0.01 i.u./kg, 90 min",7.5
same,% Inhibition,"Vasopressin V1; VAS 0.01 i.u./kg, 120 min",63%
same,Average Change,"Vasopressin V1; VAS 0.01 i.u./kg, 120 min",15
same,% Inhibition,"Vasopressin V1; VAS 0.01 i.u./kg, 180 min",38%
same,Average Change,"Vasopressin V1; VAS 0.01 i.u./kg, 180 min",25
same,% Inhibition,"Vasopressin V1; VAS 0.01 i.u./kg, 240 min",38%
same,Average Change,"Vasopressin V1; VAS 0.01 i.u./kg, 240 min",25
same,% Inhibition,"Vasopressin V1; VAS 0.01 i.u./kg, 300 min",31%
same,Average Change,"Vasopressin V1; VAS 0.01 i.u./kg, 300 min",27.5
same,% Inhibition,"Vasopressin V1; VAS 0.02 i.u./kg, 30 min",92%
same,Average Change,"Vasopressin V1; VAS 0.02 i.u./kg, 30 min",5
same,% Inhibition,"Vasopressin V1; VAS 0.02 i.u./kg, 60 min",84%
same,Average Change,"Vasopressin V1; VAS 0.02 i.u./kg, 60 min",10
same,% Inhibition,"Vasopressin V1; VAS 0.02 i.u./kg, 90 min",80%
same,Average Change,"Vasopressin V1; VAS 0.02 i.u./kg, 90 min",12.5
same,% Inhibition,"Vasopressin V1; VAS 0.02 i.u./kg, 120 min",56%
same,Average Change,"Vasopressin V1; VAS 0.02 i.u./kg, 120 min",27.5
same,% Inhibition,"Vasopressin V1; VAS 0.02 i.u./kg, 180 min",48%
same,Average Change,"Vasopressin V1; VAS 0.02 i.u./kg, 180 min",32.5
same,% Inhibition,"Vasopressin V1; VAS 0.02 i.u./kg, 240 min",44%
same,Average Change,"Vasopressin V1; VAS 0.02 i.u./kg, 240 min",35
same,% Inhibition,"Vasopressin V1; VAS 0.02 i.u./kg, 300 min",48%
same,Average Change,"Vasopressin V1; VAS 0.02 i.u./kg, 300 min",32.5
same,IC50,Rat Hepatic V1 Receptors; [3],23 nM
"Cc1ccccc1C(=O)Nc1ccc(C(=O)N2Cc3cccn3C(=O)c3ccccc32)cc1 [Example 40, 2-Methyl-N-[4-[(5-oxo-5H-pyrrolo[2,1-c]-[1,4]benzodiazepin 10(11H)-yl)carbonyl]phenyl]benzamide]",IC50,[1]; [2],120 nM
same,IC50,Rat Hepatic V1 Receptors; [3],2400 nM
O=C(c1ccc(NP(=O)(Oc2ccccc2)Oc2ccccc2)cc1)N1Cc2cccn2Cc2ccccc21 [Example 492],IC50,[1],3200 nM
same,IC50,Rat Hepatic V1 Receptors,160 nM
"O=C(Cc1ccccc1F)Nc1ccc(C(=O)N2Cc3cccn3Cc3ccccc32)cc1 [Example 357, N-[4-(5H-Pyrrolo[2,1-c][1,4]benzodiazepin-10(11)ylcarbonyl)phenyl]-2-fluorobenzeneacetamide]",IC50,[1]; [2],17 nM
same,% Inhibition,"Vasopressin V1; VAS 0.01 i.u./kg, 30 min",60%
same,Average Change,"Vasopressin V1; VAS 0.01 i.u./kg, 30 min",16.5
same,% Inhibition,"Vasopressin V1; VAS 0.01 i.u./kg, 60 min",89%
same,Average Change,"Vasopressin V1; VAS 0.01 i.u./kg, 60 min",4.5
same,% Inhibition,"Vasopressin V1; VAS 0.01 i.u./kg, 90 min",80%
same,Average Change,"Vasopressin V1; VAS 0.01 i.u./kg, 90 min",8
same,% Inhibition,"Vasopressin V1; VAS 0.01 i.u./kg, 120 min",80%
same,Average Change,"Vasopressin V1; VAS 0.01 i.u./kg, 120 min",8
same,% Inhibition,"Vasopressin V1; VAS 0.01 i.u./kg, 180 min",77%
same,Average Change,"Vasopressin V1; VAS 0.01 i.u./kg, 180 min",9.5
same,% Inhibition,"Vasopressin V1; VAS 0.01 i.u./kg, 240 min",66%
same,Average Change,"Vasopressin V1; VAS 0.01 i.u./kg, 240 min",14
same,% Inhibition,"Vasopressin V1; VAS 0.01 i.u./kg, 300 min",61%
same,Average Change,"Vasopressin V1; VAS 0.01 i.u./kg, 300 min",16
same,% Inhibition,"Vasopressin V1; VAS 0.02 i.u./kg, 30 min",68%
same,Average Change,"Vasopressin V1; VAS 0.02 i.u./kg, 30 min",16
same,% Inhibition,"Vasopressin V1; VAS 0.02 i.u./kg, 60 min",79%
same,Average Change,"Vasopressin V1; VAS 0.02 i.u./kg, 60 min",10.5
same,% Inhibition,"Vasopressin V1; VAS 0.02 i.u./kg, 90 min",79%
same,Average Change,"Vasopressin V1; VAS 0.02 i.u./kg, 90 min",10.5
same,% Inhibition,"Vasopressin V1; VAS 0.02 i.u./kg, 120 min",88%
same,Average Change,"Vasopressin V1; VAS 0.02 i.u./kg, 120 min",6
same,% Inhibition,"Vasopressin V1; VAS 0.02 i.u./kg, 180 min",78%
same,Average Change,"Vasopressin V1; VAS 0.02 i.u./kg, 180 min",11
same,% Inhibition,"Vasopressin V1; VAS 0.02 i.u./kg, 240 min",71%
same,Average Change,"Vasopressin V1; VAS 0.02 i.u./kg, 240 min",14.5
same,% Inhibition,"Vasopressin V1; VAS 0.02 i.u./kg, 300 min",68%
same,Average Change,"Vasopressin V1; VAS 0.02 i.u./kg, 300 min",16
same,IC50,Rat Hepatic V1 Receptors; [3],19 nM
"O=C(c1ccc(NS(=O)(=O)Cc2ccccc2)cc1)N1Cc2cccn2Cc2ccccc21 [Example 494, 10-[4-[[(Phenylmethyl)sulfonyl]amino]benzoyl]-10,11-dihydro-5H-pyrrolo[2,1-c][1,4]benzodiazepine]",IC50,[1]; [2],5800 nM
same,IC50,Rat Hepatic V1 Receptors; [3],110 nM
"Cc1ccccc1C(=O)Nc1ccc(C(=O)N2Cc3ccc(CN4CCCCC4)n3Cc3ccccc32)cc1 [Example 661, N-[4-[[3-(1-piperidinylmethyl)-5H-pyrrolo[2,1-c][1,4]benzodiazepin-10(11H)-yl]carbonyl]phenyl]-2-methyl-benzamide]",IC50,[1]; [2],57 nM
same,IC50,Rat Hepatic V1 Receptors; [3],57 nM
"CC(=O)c1ccc2n1Cc1ccccc1N(C(=O)c1ccc(NC(=O)c3ccc(Cl)cc3Cl)cc1)C2 [Example 670, N-[4-[(3-Acetyl-5H-pyrrolo[2,1-c][1,4]benzodiazepin-10(11H)-yl]carbonyl]phenyl]-2,4-dichlorobenzamide]",IC50,[1]; [2],290 nM
same,IC50,Rat Hepatic V1 Receptors; [3],1100 nM
"O=C(c1ccc(NS(=O)(=O)c2cc(Cl)ccc2Cl)cc1)N1Cc2cccn2Cc2ccccc21 [Example 493, 10-[4-[[(2,5-Dichlorophenyl)sulfonyl]amino]benzoyl]-10,11-dihydro-5H-pyrrolo[2,1-c][1,4]benzodiazepine]",inhibition at 10 µM,"[1]; 10 μM, rat",68%
same,IC50,Rat Hepatic V1 Receptors; [3],140 nM
"O=C(Nc1ccc(C(=O)N2Cc3cccn3Cc3ccccc32)c(Cl)c1)c1cccc(C(F)(F)F)c1F [Example 699, N-[4-(5H-pyrrolo[2,1-c][1,4]benzodiazepin-10(11H)-ylcarbonyl)-3-chloro-phenyl]-2-fluoro-3-(trifluoromethyl)benzamide]",inhibition at 1 µM,"[1]; 1 μM, rat",100%
same,inhibition at 1 µM,"Rat Hepatic V1 Receptors; 2 h, 1 μM, rat",19%
"Cc1ccccc1C(=O)Nc1ccc(C(=O)N2Cc3ccc(CN4CCN(Cc5ccccc5)CC4)n3Cc3ccccc32)cc1 [Example 663, N-[4-[[3-[[4-(phenylmethyl)-1-piperazinyl]methyl]-5H-pyrrolo[2,1-c][1,4]-benzodiazepin-10(11H)-yl]carbonyl]-phenyl]-2-methylbenzamide]",IC50,[1]; [2],25 nM
same,IC50,Rat Hepatic V1 Receptors; [3],9 nM
"Cc1ccc(C(=O)Nc2ccc(C(=O)N3Cc4cccn4Cc4ccccc43)cc2)s1 [Example 355, N-[4-(5H-Pyrrolo[2,1-c][1,4]benzodiazepin-10(11)ylcarbonyl)phenyl]-5-methyl-2-thiophenecarboxamide]",IC50,[1]; [2],350 nM
same,IC50,Rat Hepatic V1 Receptors; [3],165 nM
Cc1ccccc1C(=O)Nc1ccc(C(=O)N2Cc3ccc(CN(C)C)n3Cc3ccccc32)cc1 [Example 660],IC50,[1]; [2],64 nM
same,IC50,Rat Hepatic V1 Receptors; [3],73 nM
"Cc1ccccc1C(=O)Nc1ccc(C(=O)N2Cc3ccc(CN4CCOCC4)n3Cc3ccccc32)cc1 [Example 662, N-[4-[[3-(4-morpholinomethyl)-5H-pyrrolo[2,1-c][1,4]benzodiazepin-10(11H)-yl]carbonyl]phenyl]-2-methyl-benzamide]",IC50,[1]; [2],35 nM
same,IC50,Rat Hepatic V1 Receptors; [3],40 nM
